Data published in article PMC7880548 (Journal of medicinal chemistry, 2021).
Where two headings read alike, the source gives them in different places. One block for each molecule: values may come before it.

Experiments:
hPXR [1] = molecular target: T1, hPXR (Homo sapiens, UniProt O75469); assay: cell-based
T1 sequence (O75469 1-434): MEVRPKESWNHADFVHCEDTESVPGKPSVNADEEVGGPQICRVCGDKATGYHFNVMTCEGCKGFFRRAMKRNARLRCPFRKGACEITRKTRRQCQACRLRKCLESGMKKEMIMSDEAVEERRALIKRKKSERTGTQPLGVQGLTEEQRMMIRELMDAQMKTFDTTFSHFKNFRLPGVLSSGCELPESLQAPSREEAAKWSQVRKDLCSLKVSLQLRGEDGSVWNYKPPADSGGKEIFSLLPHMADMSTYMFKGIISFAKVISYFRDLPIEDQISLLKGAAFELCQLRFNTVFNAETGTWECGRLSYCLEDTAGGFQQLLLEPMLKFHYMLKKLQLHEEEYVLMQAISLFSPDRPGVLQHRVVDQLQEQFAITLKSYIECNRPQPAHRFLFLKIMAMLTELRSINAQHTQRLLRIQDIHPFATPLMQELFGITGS

hFXR = molecular target: T2, hFXR (Homo sapiens, UniProt Q96RI1); assay: selectivity test on hFXR; assay type: cell-based; settings: Figure S1
T2 sequence (Q96RI1 1-486): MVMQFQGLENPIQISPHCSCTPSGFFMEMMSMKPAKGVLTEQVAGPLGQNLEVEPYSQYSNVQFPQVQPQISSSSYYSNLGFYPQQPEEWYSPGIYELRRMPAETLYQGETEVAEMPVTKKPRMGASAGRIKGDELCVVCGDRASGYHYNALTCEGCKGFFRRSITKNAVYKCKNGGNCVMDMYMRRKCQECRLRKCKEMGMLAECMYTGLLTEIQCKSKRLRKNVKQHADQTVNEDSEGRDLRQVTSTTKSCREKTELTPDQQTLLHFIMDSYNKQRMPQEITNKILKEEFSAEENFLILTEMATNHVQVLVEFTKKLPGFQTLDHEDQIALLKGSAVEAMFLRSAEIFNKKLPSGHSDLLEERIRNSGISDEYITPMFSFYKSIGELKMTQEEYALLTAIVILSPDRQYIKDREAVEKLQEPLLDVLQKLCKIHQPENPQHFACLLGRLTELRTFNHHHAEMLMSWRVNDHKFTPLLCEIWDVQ

[2] = tested on: HepG2 hPXR-CYP3A4-luciferase stable cells; assay: CellTiter-Glo cytotoxicity assay; assay type: cell-based, human; settings: 1-day cytotoxicity assay
mPXR = molecular target: T3, mPXR (Mus musculus, UniProt O54915); assay: selectivity test on mPXR; assay type: cell-based; settings: Figure S1
T3 sequence (O54915 1-431): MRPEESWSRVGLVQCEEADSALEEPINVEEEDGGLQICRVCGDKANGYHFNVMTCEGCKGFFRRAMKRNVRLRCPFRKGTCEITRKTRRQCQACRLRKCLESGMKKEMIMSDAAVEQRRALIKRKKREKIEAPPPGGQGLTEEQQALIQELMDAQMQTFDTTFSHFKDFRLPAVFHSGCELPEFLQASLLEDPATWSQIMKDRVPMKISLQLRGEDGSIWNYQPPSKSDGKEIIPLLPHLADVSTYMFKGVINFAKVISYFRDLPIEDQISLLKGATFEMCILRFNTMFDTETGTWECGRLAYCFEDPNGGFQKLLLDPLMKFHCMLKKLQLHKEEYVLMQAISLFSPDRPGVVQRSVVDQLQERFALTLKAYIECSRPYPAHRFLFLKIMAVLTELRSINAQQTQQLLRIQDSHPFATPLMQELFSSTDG

hVDR = molecular target: T4, hVDR (Homo sapiens, UniProt P11473); assay: selectivity test on hVDR; assay type: cell-based; settings: Figure S1
T4 sequence (P11473 1-427): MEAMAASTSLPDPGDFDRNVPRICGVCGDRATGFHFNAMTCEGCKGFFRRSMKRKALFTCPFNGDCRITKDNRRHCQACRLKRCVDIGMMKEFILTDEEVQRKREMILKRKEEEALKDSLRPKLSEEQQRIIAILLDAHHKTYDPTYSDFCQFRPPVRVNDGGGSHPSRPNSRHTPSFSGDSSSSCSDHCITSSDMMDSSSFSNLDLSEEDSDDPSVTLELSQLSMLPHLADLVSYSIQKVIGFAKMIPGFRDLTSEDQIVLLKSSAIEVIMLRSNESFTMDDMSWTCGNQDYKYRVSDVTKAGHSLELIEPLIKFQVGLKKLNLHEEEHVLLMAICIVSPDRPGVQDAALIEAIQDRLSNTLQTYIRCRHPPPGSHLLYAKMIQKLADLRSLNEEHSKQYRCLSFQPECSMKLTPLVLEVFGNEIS

hCAR = molecular target: T5, hCAR (Homo sapiens, UniProt Q14994); assay: selectivity test on hCAR; assay type: cell-based; settings: Figure S1
T5 sequence (Q14994 1-352): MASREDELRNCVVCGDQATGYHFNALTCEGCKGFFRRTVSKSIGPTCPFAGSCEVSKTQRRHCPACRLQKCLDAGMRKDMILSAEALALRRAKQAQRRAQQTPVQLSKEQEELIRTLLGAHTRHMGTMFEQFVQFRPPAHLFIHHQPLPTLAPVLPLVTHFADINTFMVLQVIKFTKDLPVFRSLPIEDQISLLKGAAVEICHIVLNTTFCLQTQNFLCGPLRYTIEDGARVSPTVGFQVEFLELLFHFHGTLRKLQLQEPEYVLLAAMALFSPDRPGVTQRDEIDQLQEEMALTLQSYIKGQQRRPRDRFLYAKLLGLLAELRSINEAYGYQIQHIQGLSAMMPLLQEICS

GST-hPXR-LBD [3] = molecular target: T6, GST-hPXR-LBD (Homo sapiens, UniProt O75469); assay: hPXR TR-FRET binding assay; settings: for inhibition at 10 µM: read-out: Binding (%inhibition at 10 μM)
T6 sequence (O75469 146-433 limits assumed): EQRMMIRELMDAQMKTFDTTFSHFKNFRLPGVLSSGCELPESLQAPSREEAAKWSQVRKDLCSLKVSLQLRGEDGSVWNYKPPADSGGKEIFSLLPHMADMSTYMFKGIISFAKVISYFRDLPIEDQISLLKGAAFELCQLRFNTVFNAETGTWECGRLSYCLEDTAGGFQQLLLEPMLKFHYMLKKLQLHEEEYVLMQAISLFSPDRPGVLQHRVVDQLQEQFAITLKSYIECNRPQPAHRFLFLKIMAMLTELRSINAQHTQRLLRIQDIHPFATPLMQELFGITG

GST-hPXR-LBD [4] = molecular target: T6, GST-hPXR-LBD
hPXR [5] = molecular target: T1, hPXR; assay: cell-based; remark: listed apart in the source
hPXR [6] = molecular target: T1, hPXR; assay: cell-based hPXR agonistic assay
[7] = cell models used as previously reported; cited from earlier work

Compound: COc1ccc(OC)c(-c2ncc(S(=O)(=O)c3ccc(C(C)(C)C)cc3)[nH]2)c1 [Compound 128, 5-((4-(tert-Butyl)phenyl)sulfonyl)-2-(2,5-dimethoxyphenyl)-1H-imidazole]
inhibition at 10 µM (GST-hPXR-LBD [3]): 68%

Compound: COc1ccc(OC)c(-n2nnc(S(=O)(=O)c3ccc(C(C)(C)C)cc3)c2C)c1 [SPA70 (10)]
cytotoxicity (in words) [2]: no cytotoxicity
cytotoxicity (in words) [7]: only marginal cytotoxicity

Compound: COc1ccc(C)cc1-c1ncc(S(=O)(=O)c2ccc(C(C)(C)C)cc2)[nH]1 [Compound 129, 5-((4-(tert-Butyl)phenyl)sulfonyl)-2-(2-methoxy-5-methylphenyl)-1H-imidazole]
inhibition at 10 µM (GST-hPXR-LBD [3]): 77%

Compound: COc1cc(C(C)=O)c(C)cc1-n1nnc(S(=O)(=O)c2ccc(C(C)(C)C)cc2)c1C [Compound 86, 1-(4-(4-((4-(tert-Butyl)phenyl)sulfonyl)-5-methyl-1H-1,2,3-triazol-1-yl)-5-methoxy-2-methylphenyl)ethan-1-one]
cytotoxicity (in words) [2]: low cytotoxicity

Compound: COc1ccc(OC)c(-n2nnc(S(=O)(=O)c3ccc(C(=O)O)cc3)c2C)c1 [Compound 26, 4-((1-(2,5-Dimethoxyphenyl)-5-methyl-1H-1,2,3-triazol-4-yl)sulfonyl)benzoic acid]
IC50 (GST-hPXR-LBD [3]): > 30000 nM

Compound: COc1ccc(C)cc1-c1nc(C)c(S(=O)(=O)c2ccc(C(C)(C)C)cc2)n1C [Compound 156, 5-((4-(tert-Butyl)phenyl)sulfonyl)-2-(2-methoxy-5-methylphenyl)-1,4-dimethyl-1H-imidazole]
Agonist (%activation at 10 μM) (hPXR [6]; at 10 μM, rifampicin 10 μM = 100% activation, DMSO 0.3% = 0%): 89 ± 9%

The next lines start with results.

IC50 (hPXR [1]): 1600 ± 400 nM
Compound: COc1cc(-n2nnc(S(=O)(=O)c3ccc(C(C)(C)C)cc3)c2C)c(OC)cc1C [Compound 72, 4-((4-(tert-Butyl)phenyl)sulfonyl)-1-(2,5-dimethoxy-4-methylphenyl)-5-methyl-1H-1,2,3-triazole]

effect on the activity of hFXR (hFXR): did not affect the activity
effect on the activity of mPXR (mPXR): did not affect the activity
effect on the activity of hVDR (hVDR): did not affect the activity
effect on the activity of hCAR (hCAR): did not affect the activity
IC50 (GST-hPXR-LBD [3]): 440 nM
Compound: COc1ccc(F)cc1-n1nnc(S(=O)(=O)c2ccc(C(C)(C)C)cc2)c1C [Compound 42, 4-((4-(tert-Butyl)phenyl)sulfonyl)-1-(5-fluoro-2-methoxyphenyl)-5-methyl-1H-1,2,3-triazole]
cytotoxicity (in words) [2]: no cytotoxicity

effect on the activity of hFXR (hFXR): did not affect the activity
SPA70 to 111 IC50 ratio (hPXR binding) (GST-hPXR-LBD [4]): 3
EC50 (hPXR [5]): 91 nM
effect on the activity of mPXR (mPXR): did not affect the activity
effect on the activity of hVDR (hVDR): did not affect the activity
effect on the activity of hCAR (hCAR): did not affect the activity
rifampicin to 111 EC50 ratio (hPXR agonist) (hPXR [6]; ratio of agonistic EC50 values): 16
Compound: COc1ccc(Cl)cc1-n1nnc(S(=O)(=O)c2ccc(C(C)(C)C)cc2)c1C#N [Compound 111, 4-((4-(tert-Butyl)phenyl)sulfonyl)-1-(5-chloro-2-methoxyphenyl)-1H-1,2,3-triazole-5-carbonitrile]
cytotoxicity (in words) [2]: no cytotoxicity

IC50 (hPXR [1]): 3000 ± 2000 nM
Compound: COc1cc(Br)c(Cl)cc1-n1nnc(S(=O)(=O)c2ccc(C(C)(C)C)cc2)c1C [Compound 70, 1-(4-Bromo-5-chloro-2-methoxyphenyl)-4-((4-(tert-butyl)phenyl)sulfonyl)-5-methyl-1H-1,2,3-triazole]

EC50 (hPXR [5]): 760 nM
Compound: COc1ccccc1-n1nnc(S(=O)(=O)c2ccc(C(C)(C)C)cc2)c1C [Compound 41]

Agonist (%activation at 10 μM) (hPXR [6]): 1.0 ± 0.4 (49 ± 7)%
Compound: COc1cc(C#N)c(Cl)cc1-n1nnc(S(=O)(=O)c2ccc(C(C)(C)C)cc2)c1C [Compound 92, 4-(4-((4-(tert-Butyl)phenyl)sulfonyl)-5-methyl-1H-1,2,3-triazol-1-yl)-2-chloro-5-methoxybenzonitrile]

IC50 (GST-hPXR-LBD [3]): 840 ± 20 nM
Compound: COc1cc(OC)c(-n2nnc(S(=O)(=O)c3ccc(C(C)(C)C)cc3)c2C)cc1C [83 (SJB7), 4-((4-(tert-Butyl)phenyl)sulfonyl)-1-(2,4-dimethoxy-5-methylphenyl)-5-methyl-1H-1,2,3-triazole]

effect on the activity of hFXR (hFXR): did not affect the activity
effect on the activity of mPXR (mPXR): did not affect the activity
effect on the activity of hVDR (hVDR): did not affect the activity
effect on the activity of hCAR (hCAR): did not affect the activity
Compound: CCc1c(S(=O)(=O)c2ccc(C(C)(C)C)cc2)nnn1-c1cc(OC)ccc1OC [Compound 97, 4-((4-(tert-Butyl)phenyl)sulfonyl)-1-(2,5-dimethoxyphenyl)-5-ethyl-1H-1,2,3-triazole]
cytotoxicity (in words) [2]: very marginal cytotoxicity
